# Where two headings read alike, the source gives them in different places.
# Legend:
# human CRM1 = assay: In vitro CRM1-NES pull-down binding assay (immobilized GST-NES); details: immobilized GST-PKI^NES mutants, purified CRM1 and RanGTP; 2.5 μM HsCRM1, 7.5 μM ScRanGTP, 30 min 4°C; Coomassie-stained SDS/PAGE
# Experimental: After affinity purification, ^ScRan was loaded with GTP (incubated with molar excess of ethylenediaminetetraacetic acid (EDTA) for 30 min on ice followed by incubation with excess GTP and MgOAC for 30 min at room temperature) and then purified by ion exchange chromatography (HiTrap SP, GE Healthcare Life Sciences). NESs were cloned into the pGEX-TEV vector ([Chook and Blobel, 1999]), purified, and immobilized on glutathione Sepharose beads (GE Healthcare Life Sciences) in TB buffer described above containing 15% glycerol. 2.5 μM ^HsCRM1 and 7.5 μM ^ScRanGTP were added to ∼10 μg of immobilized GST-NESs in TB buffer in total volumes of 200 μl for 30 min at 4°C. Unbound proteins were washed extensively with TB buffer and bound proteins on the Sepharose beads were separated by sodium dodecyl sulfate polyacrylamide gel electrophoresis (SDS/PAGE) and visualized with Coomassie Blue staining. All binding assays were performed in triplicates. To compare the relative intensities of CRM1 bands to yield an estimate of binding activities of various NES mutants, SDS/PAGE gels were dried and scanned with an Epson V300 scanner and the images analyzed with ImageJ software. CRM1 band intensities were corrected for differences in GST-NESs band intensities and normalized to wild-type control intensity in each set of mutations. Corrected relative CRM1 band intensities were plotted as histograms with standard errors with GraphPad Prism.
# To test putative minus NESs identified from the Dbase data set, 5 μM ^HsCRM1 with or without 15 μM ^ScRanGTP were used instead. Putative NESs that show no CRM1 binding were expressed in larger scale and purified by size-exclusion chromatography to assess their aggregation states. They were also subjected to intact mass determination by mass spectroscopy to ensure that the GST-NES proteins were not degraded.
# CRM1 = CRM1 (Homo sapiens, UniProt O14980); assay: Competition differential bleaching assay monitored by microscale thermophoresis instrument (MBP-NES vs FITC-PKI^NES); type: binding; details: brackets = 68.3% confidence interval
# From the text: To first investigate whether features of the sequence such as spacings between hydrophobic residues and placement of the ΦXΦ motif are critical in determining directionality of NES binding, we reversed the sequence of the hRio2^NES ([…]) to generate hRio2^NES-R ([…]). We also reversed CPEB4^NES ([…]) to generate CPEB4^NES-R ([…]). Both reversed peptides match the class 1a NES pattern and were predicted to bind CRM1 like the PKI^NES, which is another class 1a NES. Binding affinities of NES peptides to CRM1 were measured in competition differential bleaching experiments using FITC-PKI^NES as a fluorescent probe, MBP-NESs as competitors and monitored with a microscale thermophoresis instrument (Figure 4, Figure 4—figure supplement 1). Wild-type NESs MBP-hRio2^NES and MBP-CPEB4^NES bind CRM1 with KDs of 2200 nM [1600,2900] and 590 nM [400,840], respectively (Figure 4B). The ranges in brackets represent the 68.3% confidence intervals as calculated using F-statistics and error-surface projection method ([Bevington and Robinson, 1992]). […] All of the NES peptides were also cloned into EYFP-NLS-NES fusions and tested for nuclear export activity in HeLa cells.
# Differential bleaching was used as a parameter to monitor binding of MBP-NES proteins to CRM1. In short, we observed that the fluorophore reporter attached to PKI^NES (FITC) underwent a reproducible time-dependent bleaching when exposed to excitation light (Figure 4—figure supplement 2). Furthermore, this phenomenon was concentration-dependent, that is, the bleaching was accelerated when the FITC-PKI^NES probe was exposed to increasing concentrations of CRM1. […] The differential bleaching can be counteracted by titrating of mixture of FITC-PKI^NES and CRM1 with a known competitor, MBP-PKI^NES, which competes directly with the fluorescent probe for the NES binding groove in CRM1. A sigmoidal appearance of the binding and competition isotherms is observed when differential bleaching, quantified as the average fluorescence at a time after bleaching normalized by the averaged fluorescence just after the beginning of bleaching, is plotted vs titrant concentration in a semilog graph (see Figure 4).This illustrates that this bleaching behavior can be described as a two-state system where unbound probe and CRM1-bound probe bleach at different but specific rates, and that these quantities report on the populations of bound and unbound FITC-PKI^NES. A detailed description of the data-fitting procedures will be described in manuscript in preparation by C.A.B. For error reporting, we used F-statistics and error-surface projection method to calculate the 68.3% confidence intervals of the fitted data ([Bevington and Robinson, 1992]). While error reporting using the error surface projection method is relatively uncommon, the ranges more accurately represent the true confidence intervals given the observed noise in the performed set of experiments because they explicitly account for the ability of the fitting algorithm to compensate for fitting defects by modifying correlated parameters. Thus, they provide better evaluation of the fitted data than other, more commonly used methods (e.g., error estimations from the parametric variance-covariance matrix).
# All proteins used were subjected to an extra gel filtration step and dialysis overnight in TB buffer with 15% glycerol to remove possible aggregation and ensures buffer matching. The FITC-PKI^NES peptide (FITC-[…]) was chemically synthesized by GenScript, NJ and dissolved in the TB buffer with 15% glycerol. For the direct titration, ^HsCRM1 was serially diluted from 40 μM to 1.2 nM and incubated with mixture of 120 μM ^ScRan-GTP and 40 nM FITC-PKI^NES in 1:1 vol to a total volume of 20 μl, and incubated for 1 hr in the dark at room temperature. […]
# [1] = competition titration, MBP-NES 100 μM to 3 nM, 40 nM FITC-PKI^NES probe, 300 nM HsCRM1, 120 μM ScRan-GTP, mixed 1:1, TB buffer 15% glycerol, 0.05% Tween-20, 1.5 hr room temperature, triplicate titrations, read-out: KD (dissociation constant of NES binding to CRM1)
# [2] = Figure 4—figure supplement 1, shorter hRio2^NES (without C-terminal lysine and glycine) and CPEB4^NES (without C-terminal methionine and arginine) constructs, competition differential bleaching as E1, read-out: KD of shorter NES constructs binding to CRM1
# Chain of CRM1 (O14980 whole entry, other chains not shown): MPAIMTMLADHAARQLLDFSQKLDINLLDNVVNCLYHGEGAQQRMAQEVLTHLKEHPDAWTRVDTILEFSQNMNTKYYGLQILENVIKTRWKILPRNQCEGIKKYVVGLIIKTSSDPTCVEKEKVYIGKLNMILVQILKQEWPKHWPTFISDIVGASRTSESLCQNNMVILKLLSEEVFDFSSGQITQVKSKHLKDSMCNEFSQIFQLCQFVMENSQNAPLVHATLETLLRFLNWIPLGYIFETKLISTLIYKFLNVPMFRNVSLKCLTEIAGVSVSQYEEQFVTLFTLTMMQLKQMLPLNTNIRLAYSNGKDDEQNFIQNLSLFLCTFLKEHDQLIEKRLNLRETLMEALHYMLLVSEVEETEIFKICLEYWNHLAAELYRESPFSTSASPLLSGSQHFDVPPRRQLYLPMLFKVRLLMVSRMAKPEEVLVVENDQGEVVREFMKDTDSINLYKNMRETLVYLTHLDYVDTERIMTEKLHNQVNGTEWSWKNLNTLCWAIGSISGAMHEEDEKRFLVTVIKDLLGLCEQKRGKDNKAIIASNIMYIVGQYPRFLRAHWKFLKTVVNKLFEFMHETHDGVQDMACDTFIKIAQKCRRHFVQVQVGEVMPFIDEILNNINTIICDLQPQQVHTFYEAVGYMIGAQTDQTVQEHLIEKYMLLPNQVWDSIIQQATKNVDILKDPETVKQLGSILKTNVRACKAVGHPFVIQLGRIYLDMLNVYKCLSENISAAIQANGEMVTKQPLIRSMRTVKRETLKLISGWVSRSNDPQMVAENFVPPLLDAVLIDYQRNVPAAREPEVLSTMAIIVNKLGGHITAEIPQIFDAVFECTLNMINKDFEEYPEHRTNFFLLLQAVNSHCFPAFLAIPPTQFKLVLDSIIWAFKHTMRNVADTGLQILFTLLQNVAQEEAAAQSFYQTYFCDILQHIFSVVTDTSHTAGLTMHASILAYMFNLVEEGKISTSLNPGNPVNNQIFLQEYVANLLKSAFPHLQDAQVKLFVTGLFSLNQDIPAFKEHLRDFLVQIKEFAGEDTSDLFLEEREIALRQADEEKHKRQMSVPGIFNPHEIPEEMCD
Substance,CRM1 binding in pull-down assay (human CRM1),Kd (CRM1; [1]) [nM],Kd (CRM1; [2]) [nM]
"FDLNELALKLAGL [PKI^NES-Flip2, PKI^NES-Flip mutant with N-terminal FDL, GST-fusion]",graded increases in CRM1 binding,–,–
GGSYGKIEELAQNFETMEFSR [hRio2^NES-R],–,2400,–
GGSYRMIDILSSELSHMDFTR [CPEB4^NES-R],–,780,–
"GGSYRSFDMNELALKLAGLD [PKI^NES-Flip3, PKI^NES-Flip mutant with N-terminal FDM, GST-fusion]",graded increases in CRM1 binding,–,–
"GGSY^379RTFDMHSLESSLIDI^393 [CPEB4^NES, nuclear export signal of CPEB4 (residues 379-393), tested as MBP- or GST-fusion]",–,590,1600
"GGSY^389RSFEMTEFNQALEEI^403 [hRio2^NES, nuclear export signal of hRio2 (residues 389-403), tested as MBP- or GST-fusion]",–,2200,1400
"IDLNELALKLAGL [PKI^NES-Flip1, PKI^NES with inverted LDI at the N-terminus, GST-fusion]",does not interact with CRM1,–,–
